Reference: publication PMC8621101, “Inhibition of XPO-1 Mediated Nuclear Export through the Michael-Acceptor Character of Chalcones” (Pharmaceuticals, 2021)

Assays:
XPO1 (Jurkat XPO1^WT) = molecular target: T1, XPO1 (Jurkat XPO1^WT) (Homo sapiens, UniProt O14980); experiment: RanBP1 immunofluorescence (XPO1-mediated nuclear export) in wild-type Jurkat cells; type: cell-based; details: 3 h; for Subcellular localization of RanBP1, wild-type Jurkat: compound at 4 μM; for IC50: nuclear export of RanBP1 cargo, wild-type Jurkat, mean ± SD of two independent experiments, read-out: IC50 XPO1 inhibition Jurkat XPO1^WT
T1 construct: RanBP1 immunofluorescence staining was performed on both wild type and mutant XPO1^C528S Jurkat cells; endogenous in cells; host or cells: wild-type Jurkat leukemia cells
Description: (§1) The effect of the mutation on the activity of the inhibitors was assessed by the visualization of the subcellular localization of the XPO1 cargo RanBP1.
(§2) Stably transfected HeLa NLSSV40-AcGFP-NESPKI were cultured as described in Vercruysse et al.
(§3) Cells were harvested at 400× g, washed in PBS and then transferred into an 8-well µ-Slide (Ibidi) pretreated with 0.1% (w/v) poly-L-lysine (Sigma). Cells were allowed to adhere to the slides and then subsequently fixed (4% PFA in PBS), washed and permeabilized (0.2% Triton X-100 in PBS). Further immunofluorescence staining was then performed according to standard procedures. Employed antibodies were rabbit anti-RanBP1 (ab97659, Abcam, Cambridge, UK) at a 1:500 dilution and secondary Alexa Fluor 488 goat anti-rabbit antibody (A11008, Invitrogen, ThermoFisher Scientific). Cell nuclei were counterstained with DAPI, and the samples were imaged by confocal microscopy on a Leica TCS SP5 confocal microscope (Leica Microsystems, Weitzlar, Germany), employing a HCX PL APO 63× (NA 1.2) water immersion objective. Subsequently, fluorescence was read on an ArrayScan XTI High Content Reader (Thermo Fisher Scientific, Waltham, MA, USA). Nuclear and cytoplasmic compartments were segmented, and their average pixel intensities in the green channel were quantitated similarly as for the XPO1 phenotypic reporter assay.

[1] = molecular target: T2, XPO1^C528S (Jurkat XPO1^C528S) (Homo sapiens, UniProt O14980, C528S); experiment: RanBP1 immunofluorescence (XPO1-mediated nuclear export) in mutant XPO1^C528S Jurkat cells; type: cell-based; details: for Subcellular localization of RanBP1, mutant XPO1^C528S Jurkat: compound at 4 μM; for Subcellular localization of RanBP1, mutant XPO1^C528S Jurkat / IC50: 3 h; for XPO1 inhibitory activity against Jurkat XPO1^C528S, in words / IC50: mutant XPO1^C528S Jurkat; for IC50: nuclear export of RanBP1 cargo, mean ± SD of two independent experiments, read-out: IC50 XPO1 inhibition Jurkat XPO1^C528S
T2 construct: CRISPR/Cas9 genome editing of the Jurkat cell line was performed as in Neggers et al. [43] to generate a XPO1^C528S mutant cell line; endogenous in cells; host or cells: Jurkat cells genome-edited by CRISPR/Cas9 at the XPO1 locus (XPO1^C528S)
Description: as §1, §2, §3

Z-138 cells = experiment: Cell proliferation assay (IncuCyte confluence), Z-138; type: cell-based; details: Homo sapiens; Z-138 non-Hodgkin lymphoma; 72 h; mean of two independent experiments ± SEM; read-out: IC50 antiproliferative activity Z-138
Description: Cancer cell lines HCT-116, NCI-H460, HL-60, K-562 and Z-138 were acquired from the American Type Culture Collection (ATCC, Manassas, VA, USA). The DND-41 cell line was purchased from the Deutsche Sammlung von Mikroorganismen und Zellkulturen (DSMZ Leibniz-Institut, Brunswick, Germany), and the HAP-1 cell line was ordered from Horizon Discovery (Horizon Discovery Group, Water Beach, UK). All cell lines were cultured as recommended by the suppliers. Culture media were purchased from Gibco Life Technologies and supplemented with 10% fetal bovine serum (HyClone, GE Healthcare Life Sciences, Chicago, Illinois, USA).
Adherent cell lines HCT-116, NCI-H460 and Hap-1 cells were seeded at a density between 500 and 1500 cells per well in 384-well tissue culture plates (Greiner). After overnight incubation, cells were treated with different concentrations of the test compounds. Suspension cell lines HL-60, K-562, Z-138 and DND-41 were seeded at densities ranging from 2500 to 5500 cells per well in 384-well culture plates containing the test compounds at the same concentration points.

T2 sequence (O14980 whole entry C528S): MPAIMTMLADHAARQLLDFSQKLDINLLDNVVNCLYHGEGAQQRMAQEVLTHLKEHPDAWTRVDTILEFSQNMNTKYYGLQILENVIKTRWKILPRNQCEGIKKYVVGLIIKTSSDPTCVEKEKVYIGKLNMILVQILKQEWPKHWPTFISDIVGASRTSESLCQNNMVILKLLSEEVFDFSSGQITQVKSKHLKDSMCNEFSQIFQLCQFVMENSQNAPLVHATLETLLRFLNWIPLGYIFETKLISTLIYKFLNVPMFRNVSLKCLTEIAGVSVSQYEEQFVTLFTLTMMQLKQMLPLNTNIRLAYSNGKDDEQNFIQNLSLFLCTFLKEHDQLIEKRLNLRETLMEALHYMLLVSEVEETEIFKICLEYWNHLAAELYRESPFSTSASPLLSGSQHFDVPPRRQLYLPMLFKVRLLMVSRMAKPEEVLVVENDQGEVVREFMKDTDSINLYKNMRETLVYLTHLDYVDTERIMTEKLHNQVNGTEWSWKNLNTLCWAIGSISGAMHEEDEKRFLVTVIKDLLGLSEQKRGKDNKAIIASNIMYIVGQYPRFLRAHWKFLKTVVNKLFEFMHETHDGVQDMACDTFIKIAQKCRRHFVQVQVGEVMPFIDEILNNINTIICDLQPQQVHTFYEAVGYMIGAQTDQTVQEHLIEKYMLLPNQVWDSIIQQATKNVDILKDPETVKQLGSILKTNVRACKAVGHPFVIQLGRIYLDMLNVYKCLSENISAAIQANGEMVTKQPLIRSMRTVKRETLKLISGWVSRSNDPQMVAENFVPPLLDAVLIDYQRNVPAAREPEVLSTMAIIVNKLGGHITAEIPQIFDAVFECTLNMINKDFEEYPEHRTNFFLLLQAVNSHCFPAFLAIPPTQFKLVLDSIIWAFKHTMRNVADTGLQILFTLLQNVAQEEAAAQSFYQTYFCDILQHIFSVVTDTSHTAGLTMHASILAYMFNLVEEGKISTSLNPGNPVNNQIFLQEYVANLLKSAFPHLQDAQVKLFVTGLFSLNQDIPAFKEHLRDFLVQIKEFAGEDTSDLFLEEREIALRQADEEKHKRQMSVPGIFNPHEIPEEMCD

Subcellular localization of RanBP1, wild-type Jurkat (XPO1 (Jurkat XPO1^WT)) | IC50 (XPO1 (Jurkat XPO1^WT)) | melting point | Subcellular localization of RanBP1, mutant XPO1^C528S Jurkat [1] | XPO1 inhibitory activity against Jurkat XPO1^C528S, in words [1] | IC50 [1] | SMILES | IC50 (Z-138 cells)
RanBP1 accumulated in the nucleus | 2200 ± 30 nM | 175 to 177 °C | its nuclear export was not inhibited | lost their inhibitory activity | > 5000 nM | O=C(/C=C/c1cncnc1)c1ccc2ccccc2c1 [Compound 9, (E)-1-(Naphthalen-2-yl)-3-(pyrimidin-5-yl)prop-2-en-1-one] | 1800 ± 50 nM
RanBP1 accumulated in the nucleus | 300 ± 300 nM | 184 to 185 °C | its nuclear export was not inhibited | lost their inhibitory activity | > 5000 nM | COc1cc(OC)cc(C(=O)/C=C/c2cncnc2)c1 [Compound 10, (E)-1-(3′,5′-Dimethoxyphenyl)-3-(pyrimidin-5′’-yl)prop-2-en-1-one] | 500 ± 50 nM
